In ChEMBL document CHEMBL4725457, “Novel Bicyclic Heteroaryl Compounds as γ-Secretase Modulators for Treating Alzheimer's Disease” (ACS Med Chem Lett, 2020):

These molecules were tested against Gamma-secretase (assay: Inhibition of human gamma secretase assessed as reduction in Abeta42 production).
Assay type: protein-complex assay

`Cc1cc(N2C[C@H]3CC[C@@H](C2)[C@@H]3Nc2nc3n(n2)CCC[C@H]3Oc2cc(F)cc(Cl)c2)ncn1` and `Cc1cc(N2C[C@H]3CC[C@@H](C2)[C@@H]3Nc2nc3n(n2)CCC[C@H]3Oc2cc(Cl)cc(Cl)c2)ncn1` are within 1.5-fold of each other in IC50: 8.1 nM for the first, 6.6 nM for the second.

`Cc1cc(N2C[C@H]3CC[C@@H](C2)[C@@H]3Nc2nc3n(n2)CCC[C@H]3Oc2cccc(Cl)c2)ncn1` and `Cc1cc(N2C[C@H]3CC[C@@H](C2)[C@@H]3Nc2nc3n(n2)CCC[C@H]3Oc2ccc(Cl)cc2)ncn1` are within 1.5-fold of each other in IC50: 9.9 nM for the first, 10.3 nM for the second.

`COc1cc(N2C[C@H]3CC[C@@H](C2)[C@@H]3Nc2nc3n(n2)CC[C@H]3Oc2cc(F)cc(Cl)c2)cnn1` and `COc1cc(N2C[C@H]3CC[C@@H](C2)[C@@H]3Nc2nc3n(n2)CCC[C@H]3Oc2cc(F)cc(Cl)c2)cnn1` are within 1.5-fold of each other in IC50: 8.1 nM for the first, 6.3 nM for the second.
